We go through 88 compounds from a melting point compilation (Tetko et al.; mined from patent text by program, amines drawn as free bases though some values may be those of a salt).

Molecules are shown by their SMILES. A value given as a limit tells only on which side of the number the result lay.

By melting point is commonly meant the temperature, or range, at which the solid turns liquid. As to `CC(=O)Nc1cccc(C#Cc2c(F)c(F)nc(F)c2F)c1`, the melting point was 215 to 216 °C.

For `O=[N+]([O-])c1ccc(C(F)(F)F)c(Nc2nc3ccccc3o2)c1`, the melting point was 150 to 152 °C.

In turn, `CC(C)(O)[C@@H](N)c1cccc2ccccc12` returned a melting point of 86 to 87 °C.

For the compound `COc1c(OCc2ccc(-c3ccccc3S(=O)(=O)Nc3onc(C)c3C)c(COCCF)c2)cc(C)nc1C`, the melting point is 90 to 95 °C.

Compound `c1ccc(N=C2CCCCN2)c(CN2CCOCC2)c1` showed a melting point of 108 to 110 °C.

`COc1ccc(-c2cc3ccccc3[nH]2)cc1NCc1ccc(O)c([N+](=O)[O-])c1`: the melting point was in the range of 165 to 166 °C.

Turning to `CC(CS)C(=O)N(CC(=O)O)Cc1ccco1` (stereo not drawn), the melting point fell in the range of 150 to 153 °C.

`CCCCC[C@H]1CC[C@H](COc2ccc(C(=O)C(F)(F)F)cc2)CC1` returned a melting point of 60 °C.

For the compound `CCOC(=O)c1c(CC(=O)O)n(-c2ccc(OC(F)(F)F)cc2)c2ccc(Oc3ncccc3C(N)=O)cc12`, the melting point lay in the range of 128 to 130 °C.

For the compound `N#Cc1ccc(NC(=O)c2ccc(-n3nc(C(F)(F)F)cc3C(F)(F)F)cc2)cc1`, the melting point was in the range of 192 to 193 °C.

The compound `CCOC(=O)C(C)=NNc1ccc(Br)cc1` yielded a melting point of 153 to 154 °C.

With `CCCCCCCCCCCCCCCC(=O)Nc1cc(C(=O)O)ccc1C`, the melting point fell in the range of 238 to 240 °C.

For the compound `COC(=O)C1CCSSC(C)(C)C(=O)N1` (stereo not drawn), the melting point is 110 to 112 °C.

`CCN(Cc1ccccc1)c1nc(=O)c2cc(C(F)(F)F)cc([N+](=O)[O-])c2s1` showed a melting point of 94 to 97 °C.

The compound `CC(=N)Nc1cccc(C#N)c1` had a melting point of 228 to 230 °C.

`COC(=O)c1ccc(Oc2cc(-n3nc(C)n(C(F)F)c3=O)c(F)cc2Cl)cc1` yielded a melting point of 97 to 98 °C.

Turning to `Nc1cc(F)ccc1C(=O)C1CCN(CCn2c(=O)[nH]c3ccccc3c2=O)CC1`, the melting point was 270 °C.

The compound `C[Si](C)(C)C#Cc1cnc(C(F)(F)F)nc1` displayed a melting point of 75.5 to 76 °C.

Compound `CNc1nc(NS(=O)(=O)c2ccc(N)cc2)cc(N(C)C)n1` came in with a melting point above 300 °C.

In the case of `O=C1CCCN1CCCC(=O)N1CCC(C2c3ncc(Br)cc3CCc3cc(Cl)cc(Br)c32)CC1` (single isomer, unassigned; (+)), the melting point lay in the range of 127 to 128 °C.

In turn, `CC1(C(=O)O)OC2CCCCC2NC1=O` (stereo not drawn) yielded a melting point of 142 to 144 °C.

Turning to `CCOC(Cn1nc(CC(=O)OC)c2ccccc2c1=O)OCC`, the melting point is 68 °C.

In turn, `COc1cc2c(cc1Br)CC(C)NN=C2c1ccc([N+](=O)[O-])cc1` (stereo not drawn) came in with a melting point of 172 to 174 °C.

With `O=S(=O)(c1ccc(Cl)cc1)N1CCC[C@@H](Nc2nccc(-c3c(-c4cccc(C=NO)c4)nc4sccn34)n2)C1`, the melting point was in the range of 238 to 240 °C.

On to `CC(C)(C)c1ccc(Cn2[nH]c(N)cc2=O)cc1`, for which the melting point is 126 °C.

The compound `Cc1nc2cc3c(nc2o1)C(=O)OC3=O` came in with a melting point of 194 to 196 °C.

Consider `C=Cc1c(F)c(F)cc2c(=O)c(C(=O)O)cn(C3CC3)c12`, for which the melting point lay in the range of 183 to 188 °C.

In the case of `CO/C=C(/C(=O)OC)c1ccccc1COc1cccc(N2CCCCC2)c1`, the melting point was 64 to 66 °C.

In the case of `CCON=C1CN(c2c(F)c(N)c3c(=O)c(C(=O)O)cn(C4CC4)c3c2F)CC12CN(C(=O)OC(C)(C)C)C2`, the melting point lay within 235 to 236 °C.

As for `COc1cc2c(cc1OC)-c1c(OC)c(OC)cc3c1C(C2)N(C)CC3O` (single isomer, unassigned; (+)), the melting point fell in the range of 180 to 182 °C.

The compound `CC(C)(Sc1ccc(-n2cncn2)nn1)C(O)(Cn1cncn1)c1ccc(F)cc1F` (single isomer, unassigned; (+)) registered a melting point of 226 to 227 °C.

Regarding `CCCCN(Cc1ccc(-c2ccccc2-c2nnnn2C(c2ccccc2)(c2ccccc2)c2ccccc2)cc1)c1nc(C)ccc1C(=O)OCC`, the melting point fell in the range of 120 to 122 °C.

`Cc1ncc(Cn2c(CC3CCN(Cc4ccccc4)CC3)nc3ccccc32)o1` came in with a melting point of 109 °C.

`COC(=O)Cc1ccc(C(=O)OC)cn1` had a melting point of 56 to 57 °C.

The compound `COc1ccc(N(C(C)=O)S(=O)(=O)c2ccc(C)cc2)c([N+](=O)[O-])c1` yielded a melting point of 172 to 174 °C.

`N[C@]1(C(=O)O)C=C[C@H]2[C@H](C(=O)O)[C@H]21` showed a melting point above 250 °C.

Compound `COc1c(Cl)cccc1NS(=O)(=O)c1cc(S(=O)(=O)Nc2cccc(Cl)c2OC)c2cc(O)ccc2c1` returned a melting point of 164 to 166 °C.

`CCOP(=O)(/C=C/c1cn(CCO)nc1OCc1ccc(OCc2nc(-c3ccco3)oc2C)c(OC)c1)OCC` showed a melting point of 95 to 96 °C.

`c1cnc2c(c1)nnn2-c1ccncc1` yielded a melting point of 196 to 198 °C.

As for `OCCNC(=S)NC(Cc1cccc2ccccc12)=Nc1ccccc1`, the melting point was in the range of 155 to 156 °C.

Regarding `O=C1CCC2C=C(c3cccnc3)C(O)=CC2N1` (stereo not drawn), the melting point was determined as 298 °C.

In the case of `OCCc1nccn1CCCc1ccc(OCc2ccccc2)cc1`, the melting point lay in the range of 80 to 82 °C.

`O=C(OC1CCN(Cc2ccccc2)CC1)c1cccc(I)c1` returned a melting point of 101 to 103 °C.

`CCOC(=O)C1CCCN(C(=O)/C=C/c2ccc(Sc3ccc4c(c3)OCCO4)c([N+](=O)[O-])c2)C1` (stereo not drawn) registered a melting point of 73 to 75 °C.

The compound `CCn1ncc(C(=O)c2ccc(S(C)(=O)=O)cc2Cl)c1O` gave a melting point of 172 to 175 °C.

For the compound `CCOC(=O)c1nnnn1Cc1ccccc1`, the melting point fell in the range of 58 to 61 °C.

For `Cc1cc(Oc2ccc(Oc3ccc(N)c(C)c3)cc2)ccc1N`, the melting point was 150 to 151 °C.

On to `Cc1cc2nc(Cl)c3cnccc3n2n1`, for which the melting point stood at 170 °C.

With `Nc1cccc2ccc(C(=O)O)cc12`, the melting point is 221 to 223 °C.

Regarding `COc1ccc2c(c1)c1c(n2Cc2ccccc2)CCCC1=O`, the melting point was 174 to 175 °C.

Compound `CN1CCC(c2c[nH]c3ccc(NC(=N)c4cccs4)cc23)C(F)C1` (stereo not drawn) yielded a melting point of 115 to 117 °C.

For the compound `CN1CCN(C2=Nc3cc(Cl)c(Cl)cc3Nc3nn(C)nc32)CC1`, the melting point is 218 °C.

Consider `O=S(=O)(CC(O)Cn1ccnc1)c1ccccc1` (stereo not drawn), for which the melting point fell in the range of 153 to 156 °C.

Consider `CC(C)C[C@H](NC(=O)C(S)[C@@H](N)Cc1ccccc1)C(=O)O` (stereo partly drawn), for which the melting point was 96 to 105 °C.

Turning to `CCn1c(=O)c2[nH]c(/C=C/c3cc(C)c(OC)cc3C)nc2n(CC)c1=O`, the melting point was above 280 °C.

With `CCOP(=O)(CC(=O)Nc1c(C(C)C)cccc1C(C)C)OCC`, the melting point is 119 to 120 °C.

The compound `O=C(O)c1ccc2c(Br)n[nH]c2c1` had a melting point above 250 °C.

On to `CC(=O)Nc1cc(Oc2ccc3c(C(=O)Nc4ccc(N5CCC[C@H](N)C5)c(C(F)(F)F)c4)cccc3c2)ncn1`, for which the melting point was 218 to 228 °C.

In the case of `CN(C)C=Cc1ccc([N+](=O)[O-])c(OCc2ccccc2)c1`, the melting point was 111 to 114 °C.

On to `CCN(CC)CCNC(=O)c1cc2cc(I)ccc2[nH]1`, for which the melting point is 208 to 210 °C.

As to `CC1(c2ccc(N)cc2)C(=O)Nc2cc(Cl)ccc2C1=O` (stereo not drawn), the melting point was in the range of 155 to 156 °C.

For `CCOc1c(C(N)=O)n(-c2ccccc2)c2ccc(OC)cc12`, the melting point fell in the range of 143 to 144 °C.

Compound `CC(C)CCCC(C)CCCC(C)CCCC(C)(O)C(CO)NCCO` (stereo not drawn) had a melting point of 49.1 to 50.2 °C.

For the compound `CCOC(=O)c1cnc(-c2ccccc2)nc1OCc1ccc(OCc2nc(-c3ccco3)oc2C)c(OC)c1`, the melting point was 142 to 143 °C.

`CN(C)C=C(C#N)C(=O)c1ccc(-n2ccnc2)cc1` yielded a melting point of 165 °C.

Take `CNC(=O)CCC(O)c1ccccc1` (stereo not drawn): the melting point was in the range of 67 to 69 °C.

`COc1ccc(CN(CCN(C)CCCCCCNC(=S)NCCSCc2csc(NC(=N)N)n2)c2ccccn2)cc1` yielded a melting point of 78 °C.

In the case of `CCc1ccccc1NC=C1C(=O)N(c2cccc(-c3nnn[nH]3)c2)N=C1C`, the melting point is 262 °C.

In the case of `Cn1ncnc1COc1nn2c(-c3ccccc3F)nnc2cc1C1(F)CCC1`, the melting point lay in the range of 154 to 162 °C.

Consider `CCOC(=O)c1c(C(F)F)nc(C(F)(F)F)c(C(=O)OCC)c1N`, for which the melting point lay in the range of 29 to 30 °C.

`CCCCS(=O)c1ccc(C=O)nc1` (stereo not drawn) returned a melting point of 90 to 91 °C.

In turn, `Cc1oc2cc(C3CC(=O)OC(=O)C3)ccc2c1C` gave a melting point of 145 to 147 °C.

For `Cn1ccc(=O)c(-c2cccc(C(F)(F)F)c2)c1`, the melting point was in the range of 122 to 123 °C.

`CCOC(=O)c1nc2cc(Br)c(Br)cc2[nH]c1=O` registered a melting point of 235 to 236 °C.

`NC(=O)C(c1ccccc1)(c1ccccc1)[C@@H]1CCNC1` displayed a melting point of 128 to 132 °C.

In turn, `C/C=C/C1CCC2c3ccc(OCC)c(F)c3OC2C1` (stereo not drawn) returned a melting point of 145 °C.

Turning to `Cn1ccnc1COc1cc(Oc2ccc(S(C)(=O)=O)cc2)cc2cc(C3=NCC(CC(N)=O)S3)[nH]c12` (stereo not drawn), the melting point was 130 to 131 °C.

`COCCN1Cc2cc(C(=O)O)ccc2N(C)C(CC(=O)O)C1=O` (stereo not drawn) had a melting point of 228 to 230 °C.

The compound `Cc1cc(C(=S)NCc2cccc([N+](=O)[O-])c2)c(OCC(=O)O)cc1F` displayed a melting point of 137 to 139 °C.

Compound `O=[N+]([O-])c1ccc(N2CCN(c3ccncc3)CC2)cc1` had a melting point of 213 to 216 °C.

Consider `CC(=O)NC[C@H]1CN(c2ccc3c(c2)CC(C)N3CCF)C(=O)O1` (stereo partly drawn), for which the melting point lay in the range of 127 to 130 °C.

`CCS(=O)(=O)Nc1cc(-c2ncnc(NOC)c2Cl)c(F)cc1C#N` displayed a melting point of 188 to 189 °C.

For the compound `Cc1ccc(-c2c(Cl)nc3ncnn3c2Cl)c(F)c1`, the melting point came to 152 °C.

Turning to `CC(=O)OCS(=O)(=O)c1c(F)cc(-c2c(-c3ccccc3)noc2C)cc1F`, the melting point lay within 165 to 166 °C.

In turn, `O=C1CCSc2cc(-c3ccccc3)ccc21` showed a melting point of 85 to 87 °C.

Regarding `CC(C)c1cccc(C(C)C)c1NC(=O)CNC(c1ccccc1)c1ccc([N+](=O)[O-])cc1` (stereo not drawn), the melting point lay within 177 to 179 °C.

For `NS(=O)(=O)c1cc(C(=O)O)cc([N+](=O)[O-])c1Oc1ccc(Cl)cc1`, the melting point was 248 °C.

On to `[N-]=[N+]=NC1CC(n2cnc3c(NCC4CC4)nc(N)nc32)OC1CO` (stereo not drawn), for which the melting point was 104 to 106 °C.
